Experimental findings from ChEMBL document CHEMBL6103563, “Chiral recognition of CIAC001 isomers in regulating pyruvate kinase M2 and mitigating neuroinflammation” (Eur J Med Chem, 2025) are described below.

Series [1] relates to Mus musculus. The experiment in a line: Anti-morphine addiction activity against BALB/c mouse assessed as decrease in preference for morphine-paired chamber at 0.2 mg/kg administration started on day 3 after 2 days of chamber habituation followed by treatment with morphine on days 4,6 and 8 and with vehicle on days 5,7 and 9 and measured on day 10 by conditional place preference test. It counts as functional, organism-based. To be noted: time 8.0 day.

Series [2] has as its system BV-2. The experiment in a line: Anti-neuroinflammatory activity in mouse BV-2 cells assessed as inhibition of LPS-induced NO production incubated for 24 hrs in presence of LPS by fluorescence-based analysis. Particulars: for pIC50: BV-2, 24 h. The series is classed as functional, cell-based.
Series [3] has as its system BV-2. The experiment in a line: Inhibition of LPS-inuced nuclear translocation of PKM2 in mouse BV-2 cells assessed as decrease in PKM2 content in nucleus at 5 uM incubated for 6 hrs in presence of LPS by western blot analysis. To be noted: filed as modulator. The series is classed as subcellular.
The target of series [4] is T1, Pyruvate kinase PKM (Homo sapiens, UniProt P14618). The experiment in a line: Binding affinity to PKM2 (unknown origin) assessed as decrease in thermal stabilization of protein by measuring change in melting temperature at 100 uM incubated for 2 hrs at room temperature followed by heating at varying temperatures for 5 mins and later cooled at 25 degC for 3 mins by CETSA analysis. Particulars: filed as modulator, time 128.0 min.
Target sequence in this assay (P14618 2-531 limits assumed): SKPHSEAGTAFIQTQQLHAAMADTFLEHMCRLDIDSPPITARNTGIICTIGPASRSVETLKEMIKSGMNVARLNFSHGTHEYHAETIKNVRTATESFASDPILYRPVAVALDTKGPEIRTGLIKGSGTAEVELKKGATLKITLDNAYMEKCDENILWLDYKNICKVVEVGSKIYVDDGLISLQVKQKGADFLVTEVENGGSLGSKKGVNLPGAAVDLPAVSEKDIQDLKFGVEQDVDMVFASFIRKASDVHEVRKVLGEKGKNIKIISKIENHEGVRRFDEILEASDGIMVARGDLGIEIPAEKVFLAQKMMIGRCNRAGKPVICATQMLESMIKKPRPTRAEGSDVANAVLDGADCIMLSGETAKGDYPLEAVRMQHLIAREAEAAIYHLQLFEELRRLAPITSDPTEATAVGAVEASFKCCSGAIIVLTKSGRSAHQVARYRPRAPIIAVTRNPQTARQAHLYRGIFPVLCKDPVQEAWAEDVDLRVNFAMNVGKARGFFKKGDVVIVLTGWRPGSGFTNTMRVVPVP

Series [5] deals with BV-2. The experiment in a line: Anti-neuroinflammatory activity in mouse BV-2 cells assessed as inhibition of LPS-induced microglial activation by measuring inhibition of morphological changes at 5 uM incubated for 24 hrs in presence of LPS by inverted microscopic analysis. The series is classed as functional, cell-based.
Series [6] has as its system Mus musculus. The series is described as follows: Anti-neuroinflammatory activity in BALB/c mouse assessed as decrease in morphine-induced IL-1 beta mRNA expression in medial prefrontal cortex at 0.2 mg/kg administration started on day 3 after 2 days of chamber habituation followed by treatment with morphine on days 4,6 and 8 and with vehicle on days 5,7 and 9 and measured on day 10 by qRT-PCR analysis. It counts as functional, organism-based. Particulars: time 8.0 day.

In series [7] the test system is BV-2. The experiment in a line: Anti-neuroinflammatory activity in mouse BV-2 cells assessed as inhibition of LPS-induced IL-1 beta mRNA expression at 10 uM by qRT-PCR analysis. The series is classed as functional, cell-based. Background: Real-time PCR tracks product formation cycle by cycle.
The next series has as its target Cannabinoid receptor 2 (Homo sapiens, UniProt P34972). The experiment in a line: Binding affinity to CB2 receptor (unknown origin).
For the next series, the target named is Cannabinoid receptor 1 (Homo sapiens, UniProt P21554). The series is described as follows: Binding affinity to CB1 receptor (unknown origin).
Series [8] is described as follows: Mean residence time in BALB/c mouse plasma at 10 mg/kg, po measured for 4 hrs by MS-HPLC analysis. The series is classed as ADME, organism-based.
Series [9] is described as follows: Half life in BALB/c mouse brain at 10 mg/kg, po measured for 4 hrs by MS-HPLC analysis. The series is classed as ADME, organism-based.
Series [10] is described as follows: Cmax in BALB/c mouse brain at 10 mg/kg, po measured for 4 hrs by MS-HPLC analysis. The series is classed as ADME, organism-based. To be noted: in vivo.
Series [11] deals with T1, Pyruvate kinase PKM. The series is described as follows: Binding affinity to PKM2 (unknown origin) assessed as dissociation constant by fluorescence titration based spectrophotometric analysis.
Target sequence in this assay (P14618 whole entry): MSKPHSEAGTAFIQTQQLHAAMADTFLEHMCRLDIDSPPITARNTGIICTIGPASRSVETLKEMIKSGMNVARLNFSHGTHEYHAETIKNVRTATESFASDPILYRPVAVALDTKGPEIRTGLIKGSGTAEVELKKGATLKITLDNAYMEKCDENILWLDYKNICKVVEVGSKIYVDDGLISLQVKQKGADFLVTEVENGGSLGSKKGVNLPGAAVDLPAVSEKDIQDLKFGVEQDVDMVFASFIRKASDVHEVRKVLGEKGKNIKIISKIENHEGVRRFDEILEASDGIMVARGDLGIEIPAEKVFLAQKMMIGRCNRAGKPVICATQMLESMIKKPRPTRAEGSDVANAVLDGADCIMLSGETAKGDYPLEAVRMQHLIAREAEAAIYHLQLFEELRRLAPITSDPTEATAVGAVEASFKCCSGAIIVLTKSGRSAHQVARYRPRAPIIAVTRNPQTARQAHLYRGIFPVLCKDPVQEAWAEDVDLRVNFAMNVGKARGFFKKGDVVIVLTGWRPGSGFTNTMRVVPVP
The species named for a further series is Homo sapiens. The experiment in a line: Binding affinity to PKM2 F26A mutant (unknown origin) at 10 to 50 uM by fluorescence titration based spectrophotometric analysis. Particulars: dose 10-50 µM.
Series [12] is described as follows: Mean residence time in BALB/c mouse brain at 10 mg/kg, po measured for 4 hrs by MS-HPLC analysis. It counts as ADME, organism-based.
A short description of series [13]: Half life in BALB/c mouse plasma at 10 mg/kg, po measured for 4 hrs by MS-HPLC analysis. It counts as ADME, organism-based.
A short description of series [14]: Cmax in BALB/c mouse plasma at 10 mg/kg, po measured for 4 hrs by MS-HPLC analysis. It counts as ADME, organism-based. To be noted: in vivo.
Series [15] can be described thus: Ratio of Cmax in brain to plasma in BALB/c mouse at 10 mg/kg, po measured for 4 hrs by MS-HPLC analysis. The series is classed as ADME, organism-based. Particulars: brain and plasma.
Series [16] can be described thus: AUC in BALB/c mouse brain at 10 mg/kg, po measured for 4 hrs by MS-HPLC analysis. It counts as ADME, organism-based. To be noted: in vivo.
Series [17] deals with BV-2. The series is described as follows: Anti-neuroinflammatory activity in mouse BV-2 cells assessed as inhibition of LPS-induced IL-1 beta mRNA expression at 1 uM by qRT-PCR analysis. It counts as functional, cell-based.
Series [18] can be described thus: AUC in BALB/c mouse plasma at 10 mg/kg, po measured for 4 hrs by MS-HPLC analysis. The series is classed as ADME, organism-based. To be noted: in vivo.
Series [19] is described as follows: Acute toxicity against BALB/c mouse assessed as changes in body weight at 20 mg/kg, ip measured for 14 days. It counts as organism-based. Particulars: in vivo, 336 h, time 14 day.
Series [20] is described as follows: Tmax in BALB/c mouse plasma at 10 mg/kg, po measured for 4 hrs by MS-HPLC analysis. It counts as ADME, organism-based.
The nature of series [21]: Ratio of AUC in brain to plasma in BALB/c mouse at 10 mg/kg, po measured for 4 hrs by MS-HPLC analysis. The series is classed as ADME, organism-based. To be noted: brain and plasma.
Series [22] can be described thus: Tmax in BALB/c mouse brain at 10 mg/kg, po measured for 4 hrs by MS-HPLC analysis. It counts as ADME, organism-based.
Series [23] in a line: Acute toxicity against BALB/c mouse assessed as mortality at 20 mg/kg, ip measured after 2 hrs. It counts as organism-based. To be noted: in vivo.

Broadly, the pIC50 is the negative decadic logarithm of the IC50, by convention in mol/L. By ΔTm is commonly meant the change in melting temperature against a reference sample. As a reminder, the pKi is −log10 of the Ki, conventionally taken in molar units. Higher therefore signals a small Ki. The term MRT denotes the average time that molecules of a dose stay in the body. The half-life is the time needed for the level to fall by half in the phase considered. High values mean slow decline, low ones rapid decline. As usually defined, the pKd is −log10 of the Kd, conventionally taken in molar units. Usually Kp stands for the ratio of the level in a tissue or fluid to that in plasma or blood. Broadly, the Tmax is the time at which the peak concentration occurs.

pIC50, pKd, pKi: −log10 of the molar value. The source made the active and inactive calls.

Sequence of Cannabinoid receptor 2 (P34972 whole entry): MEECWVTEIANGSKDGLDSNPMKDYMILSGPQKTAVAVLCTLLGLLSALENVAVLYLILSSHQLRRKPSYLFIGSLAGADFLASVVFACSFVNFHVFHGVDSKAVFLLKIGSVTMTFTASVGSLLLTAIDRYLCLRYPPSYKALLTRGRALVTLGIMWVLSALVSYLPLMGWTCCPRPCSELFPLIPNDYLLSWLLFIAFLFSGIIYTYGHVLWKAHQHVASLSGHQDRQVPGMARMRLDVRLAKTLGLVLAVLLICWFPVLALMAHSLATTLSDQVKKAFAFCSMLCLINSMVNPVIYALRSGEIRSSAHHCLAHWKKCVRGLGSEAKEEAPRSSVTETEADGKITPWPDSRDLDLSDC
Sequence of Cannabinoid receptor 1 (P21554 whole entry): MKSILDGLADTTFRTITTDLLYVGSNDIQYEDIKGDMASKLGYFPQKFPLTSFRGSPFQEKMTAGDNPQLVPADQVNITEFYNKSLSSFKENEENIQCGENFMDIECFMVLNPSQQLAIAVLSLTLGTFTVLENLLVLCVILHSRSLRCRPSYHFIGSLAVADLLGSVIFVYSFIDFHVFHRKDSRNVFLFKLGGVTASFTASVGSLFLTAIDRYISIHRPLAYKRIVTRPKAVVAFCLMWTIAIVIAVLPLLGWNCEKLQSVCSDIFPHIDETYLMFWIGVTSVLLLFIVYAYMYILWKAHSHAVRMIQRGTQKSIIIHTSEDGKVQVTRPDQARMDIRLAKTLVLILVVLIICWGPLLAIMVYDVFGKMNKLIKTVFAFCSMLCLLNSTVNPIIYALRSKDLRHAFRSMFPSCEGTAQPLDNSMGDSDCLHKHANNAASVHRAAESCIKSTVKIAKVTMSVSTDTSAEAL

With `C=C(C)[C@@H]1CCC(C)=C[C@H]1c1c(O)cc([C@@H](C)n2nccn2)cc1O`, the outcome in the series with Mus musculus [1] was inactive. Moreover, in the series with BV-2 [2], the negative logarithm of the IC50 (pIC50) is 4.88. For the same molecule, in the series on BV-2 [3], the inhibition result was “Active; Weak Inhibitory Effect Observed”. Besides, on Pyruvate kinase PKM [4], the ΔTm was found to be 1.6 °C. Further, the Activity entry in the series on BV-2 [5] is “Active; Lessened Effect Observed”; in the series on Mus musculus [6] it was “Active; Minimal Effect Observed”. Further, the result in the series on BV-2 [7] was Active.
Take `CCCCCCC(C)(C)c1cc(O)c2c(c1)OC(C)(C)c1ccc(C)c(CO)c1-2`: the pKi was 7.02 at Cannabinoid receptor 2 and 10.18 on Cannabinoid receptor 1.
`C=C(C)[C@@H]1CCC(C)=C[C@H]1c1c(O)cc([C@H](C)n2nccn2)cc1O`: the figures for the MRT in [8] and in series [12] were 72 min and 102 min, respectively. Moreover, the figures for the half-life in series [9] and in series [13] were 48 min and 42 min, respectively. Besides, the Cmax is 130 ng/mg in series [10] and 46.6 ng/mg in series [14]. Moreover, the outcome in the series with Mus musculus [1], in the series on BV-2 [17], with BV-2 [5], with Mus musculus [6] and with BV-2 [7] was Active. Moreover, the values for the Activity result (with BV-2 [2]; in series [19]; in series [23]) were “Dose-dependent-effect”, “Non-toxic” and “Non-toxic”, respectively. Also, the pIC50 in the series on BV-2 [2] is 5.48. Also, on Pyruvate kinase PKM [11], the pKd was 5.66. Besides, the result in the series listed under Homo sapiens was inactive. Besides, the inhibition entry with BV-2 [3] is “Active”. In addition, the ΔTm at Pyruvate kinase PKM [4] was 4.1 °C. The results for the Kp at 4 h in series [15] and in series [21] were 3 and more than 2, respectively. Besides, the AUC in series [16] was 137.7 ng·h/g; in [18], 75.5 ng·h/g. Further, the Tmax in series [20] was determined as 30 min; in series [22], 18 min.
Consider `C=C(C)[C@H]1CCC(C)=C[C@@H]1c1c(O)cc([C@H](C)n2nccn2)cc1O`, for which the pIC50 in the series on BV-2 [2] is less than 4.52.
For `C=C(C)[C@H]1CCC(C)=C[C@@H]1c1c(O)cc([C@@H](C)n2nccn2)cc1O`, the negative logarithm of the IC50 (pIC50) in the series on BV-2 [2] is less than 4.52.
